According to patent US20140031278A1, “Novel Glucagon Analogues” (NOVO NORDISK A/S, priority 2011, published 2014):
*1 amine or outer side, *2 acyl side, *3 side chain or, on linkers, in order; H or OH if unused. Where a SMILES comes first, the peptide text is derived from it. Side-chain parts run from the residue outwards. γGlu = O=C(O)[C@H](CCC(=O)[*:2])N[*:1]

biological target: T1, glucagon receptor (Homo sapiens, UniProt P47871); experiment: Assay (I) Glucagon activity (cAMP biosensor, FLIPR); type: cell-based; conditions: HEK-293 cells with cloned glucagon receptor and cAMP biosensor; end point after 6 minutes
T1 construct: expressed in transfected cells
T1 sequence (P47871 26-477): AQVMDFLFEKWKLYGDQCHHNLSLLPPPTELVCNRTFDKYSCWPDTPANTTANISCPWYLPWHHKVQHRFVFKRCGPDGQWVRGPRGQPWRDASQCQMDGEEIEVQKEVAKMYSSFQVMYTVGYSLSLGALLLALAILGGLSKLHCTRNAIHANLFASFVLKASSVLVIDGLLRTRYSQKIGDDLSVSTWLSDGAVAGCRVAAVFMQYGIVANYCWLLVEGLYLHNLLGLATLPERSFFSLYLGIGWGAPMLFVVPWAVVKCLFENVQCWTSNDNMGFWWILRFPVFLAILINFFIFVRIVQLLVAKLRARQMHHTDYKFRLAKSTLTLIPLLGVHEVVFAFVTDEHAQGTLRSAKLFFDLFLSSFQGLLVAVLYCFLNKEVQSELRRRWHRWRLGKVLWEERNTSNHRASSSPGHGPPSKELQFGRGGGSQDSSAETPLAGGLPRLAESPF
Method in brief: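 HEK-293 cells expressing glucagon receptor with membrane cAMP biosensor (ACTOne), calcium-dye loaded with probenecid and a PDE inhibitor.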

Point of comparison: `CC(=O)N[C@@H](CCC(=O)N[C@@H](CCC(=O)N[C@@H](CCC(=O)N[C@@H](CCC(=O)NCCCC[C@H](NC(=O)[C@@H](NC(=O)[C@H](Cc1ccccc1)NC(=O)[C@H](CC(=O)O)NC(=O)[C@H](CCC(N)=O)NC(=O)[C@H](C)NC(=O)[C@H](CCCNC(=N)N)NC(=O)[C@H](CCCNC(=N)N)NC(=O)[C@H](Cc1c[nH]c2ccccc12)NC(=O)[C@H](CC(=O)O)NC(=O)[C@H](CC(C)C)NC(=O)[C@H](Cc1ccc(O)cc1)NC(=O)[C@H](CCCCN)NC(=O)[C@H](CO)NC(=O)[C@H](Cc1ccc(O)cc1)NC(=O)[C@H](CC(=O)O)NC(=O)[C@H](CO)NC(=O)[C@@H](NC(=O)[C@H](Cc1ccccc1)NC(=O)[C@@H](NC(=O)CNC(=O)[C@H](CCC(N)=O)NC(=O)[C@H](CO)NC(=O)[C@@H](N)Cc1c[nH]cn1)[C@@H](C)O)[C@@H](C)O)C(C)C)C(=O)N[C@@H](Cc1c[nH]c2ccccc12)C(=O)N[C@@H](CC(C)C)C(=O)N[C@@H](CC(C)C)C(=O)N[C@@H](CO)C(=O)N[C@H](C(=O)O)[C@@H](C)O)C(=O)O)C(=O)O)C(=O)O)C(=O)O` [Example 34], EC50 0.0023 nM. Against it:
- CC[C@H](C)[C@H](NC(=O)[C@H](CC(=O)O)NC(=O)[C@H](CC(C)C)NC(=O)[C@H](Cc1ccc(O)cc1)NC(=O)[C@H](CCCNC(=N)N)NC(=O)[C@H](CO)NC(=O)[C@H](Cc1ccc(O)cc1)NC(=O)[C@H](CC(=O)O)NC(=O)[C@H](CO)NC(=O)[C@@H](NC(=O)[C@H](Cc1ccccc1)NC(=O)[C@@H](NC(=O)CNC(=O)[C@H](Cc1c[nH]cn1)NC(=O)[C@H](CO)NC(=O)[C@@H](N)Cc1c[nH]cn1)[C@@H](C)O)[C@@H](C)O)C(=O)N[C@@H](CCCNC(=N)N)C(=O)N[C@@H](CCCNC(=N)N)C(=O)N[C@@H](C)C(=O)N[C@@H](C)C(=O)N[C@@H](CC(=O)O)C(=O)N[C@@H](Cc1ccccc1)C(=O)N[C@H](C(=O)N[C@@H](CCCCNC(=O)CC[C@H](NC(=O)CC[C@H](NC(=O)CC[C@H](NC(=O)CC[C@H](N)C(=O)O)C(=O)O)C(=O)O)C(=O)O)C(=O)N[C@@H](Cc1c[nH]c2ccccc12)C(=O)N[C@@H](CC(C)C)C(=O)N[C@@H](CC(C)C)C(=O)N[C@@H](CO)C(=O)N[C@H](C(=O)O)[C@@H](C)O)C(C)C [Example 8, N^ε24-[(4S)-4-[[(4S)-4-[[(4S)-4-[[(4S)-4-amino-4-carboxybutanoyl]amino]-4-carboxybutanoyl]amino]-4-carboxybutanoyl]amino]-4-carboxybutanoyl]-[His3,Arg12,Ile16,Ala20,Lys24,Leu27,Ser28]-Glucagon] (H-HSHGTFTSDYSRYLDIRRAADFVK([γGlu-γGlu-γGlu-γGlu])WLLST-OH) — 12-fold higher, 0.0269 nM
- CC(=O)N[C@@H](CCC(=O)N[C@@H](CCC(=O)N[C@@H](CCC(=O)N[C@@H](CCC(=O)NCCCC[C@H](NC(=O)[C@H](CC(C)C)NC(=O)[C@H](CC(C)C)NC(=O)[C@H](Cc1c[nH]c2ccccc12)NC(=O)[C@H](CCC(N)=O)NC(=O)[C@@H](NC(=O)[C@H](Cc1ccccc1)NC(=O)[C@H](CC(=O)O)NC(=O)[C@H](CCC(N)=O)NC(=O)[C@H](C)NC(=O)[C@H](CCCNC(=N)N)NC(=O)[C@H](CCCNC(=N)N)NC(=O)[C@H](CO)NC(=O)[C@H](CC(=O)O)NC(=O)[C@H](CC(C)C)NC(=O)[C@H](Cc1ccc(O)cc1)NC(=O)[C@H](CCCCN)NC(=O)[C@H](CO)NC(=O)[C@H](Cc1ccc(O)cc1)NC(=O)[C@H](CC(=O)O)NC(=O)[C@H](CO)NC(=O)[C@@H](NC(=O)[C@H](Cc1ccccc1)NC(=O)[C@@H](NC(=O)CNC(=O)[C@H](CCC(N)=O)NC(=O)[C@H](CO)NC(=O)[C@@H](N)Cc1c[nH]cn1)[C@@H](C)O)[C@@H](C)O)C(C)C)C(=O)N[C@H](C(=O)O)[C@@H](C)O)C(=O)O)C(=O)O)C(=O)O)C(=O)O [Example 53, N^ε28-[(4S)-4-[[(4S)-4-[[(4S)-4-[[(4S)-4-acetamido-4-carboxybutanoyl]amino]-4-carboxybutanoyl]amino]-4-carboxybutanoyl]amino]-4-carboxybutanoyl]-[Leu^27,Lys^28]-Glucagon] — 3-fold higher, 0.007 nM
- CC(=O)N[C@@H](CCC(=O)N[C@@H](CCC(=O)N[C@@H](CCC(=O)N[C@@H](CCC(=O)NCCCC[C@H](NC(=O)[C@@H](NC(=O)[C@H](Cc1ccccc1)NC(=O)[C@H](CC(=O)O)NC(=O)[C@H](C)NC(=O)[C@H](C)NC(=O)[C@H](CCCNC(=N)N)NC(=O)[C@H](CCCNC(=N)N)NC(=O)[C@H](CO)NC(=O)[C@H](CC(=O)O)NC(=O)[C@H](CC(C)C)NC(=O)[C@H](Cc1ccc(O)cc1)NC(=O)[C@H](CCCCN)NC(=O)[C@H](CO)NC(=O)[C@H](Cc1ccc(O)cc1)NC(=O)[C@H](CC(=O)O)NC(=O)[C@H](CO)NC(=O)[C@@H](NC(=O)[C@H](Cc1ccccc1)NC(=O)[C@@H](NC(=O)CNC(=O)[C@H](Cc1c[nH]cn1)NC(=O)[C@H](CO)NC(=O)[C@@H](N)Cc1c[nH]cn1)[C@@H](C)O)[C@@H](C)O)C(C)C)C(=O)N[C@@H](Cc1c[nH]c2ccccc12)C(=O)N[C@@H](CC(C)C)C(=O)N[C@@H](CC(C)C)C(=O)N[C@@H](CO)C(=O)N[C@H](C(=O)O)[C@@H](C)O)C(=O)O)C(=O)O)C(=O)O)C(=O)O [Example 4, N^ε24-[(4S)-4-[[(4S)-4-[[(4S)-4-[[(4S)-4-acetamido-4-carboxybutanoyl]amino]-4-carboxybutanoyl]amino]-4-carboxybutanoyl]amino]-4-carboxybutanoyl]-[His3,Ala20,Lys24,Leu27,Ser28]-Glucagon] (H-HSHGTFTSDYSKYLDSRRAADFVK([γGlu-γGlu-γGlu-γGlu-Ac])WLLST-OH) — 6.3-fold higher, 0.0145 nM
- CC(=O)N[C@@H](CCC(=O)N[C@@H](CCC(=O)N[C@@H](CCC(=O)N[C@@H](CCC(=O)NCCCC[C@H](NC(=O)[C@@H](NC(=O)[C@H](Cc1ccccc1)NC(=O)[C@H](CC(=O)O)NC(=O)[C@H](CCC(N)=O)NC(=O)[C@H](C)NC(=O)[C@H](CCCNC(=N)N)NC(=O)[C@H](CCCNC(=N)N)NC(=O)[C@@H](NC(=O)[C@H](CCC(=O)O)NC(=O)[C@H](CC(C)C)NC(=O)[C@H](Cc1ccc(O)cc1)NC(=O)[C@H](CCCCN)NC(=O)[C@H](CO)NC(=O)[C@H](Cc1ccc(O)cc1)NC(=O)[C@H](CC(=O)O)NC(=O)[C@H](CO)NC(=O)[C@@H](NC(=O)[C@H](Cc1ccccc1)NC(=O)[C@@H](NC(=O)CNC(=O)[C@H](Cc1c[nH]cn1)NC(=O)[C@H](CO)NC(=O)[C@@H](N)Cc1c[nH]cn1)[C@@H](C)O)[C@@H](C)O)[C@@H](C)O)C(C)C)C(=O)N[C@@H](Cc1c[nH]c2ccccc12)C(=O)N[C@@H](CC(C)C)C(=O)N[C@@H](CC(C)C)C(=O)N[C@@H](CO)C(=O)N[C@H](C(=O)O)[C@@H](C)O)C(=O)O)C(=O)O)C(=O)O)C(=O)O [Example 31, N^ε24-[(4S)-4-[[(4S)-4-[[(4S)-4-[[(4S)-4-acetamido-4-carboxybutanoyl]amino]-4-carboxybutanoyl]amino]-4-carboxybutanoyl]amino]-4-carboxybutanoyl]-[His3,Glu15,Thr16,Lys24,Leu27,Ser28]-Glucagon] (H-HSHGTFTSDYSKYLETRRAQDFVK([γGlu-γGlu-γGlu-γGlu-Ac])WLLST-OH) — 5.7-fold higher, 0.013 nM
- CC(=O)N[C@@H](CCC(=O)N[C@@H](CCC(=O)N[C@@H](CCC(=O)N[C@@H](CCC(=O)NCCCC[C@H](NC(=O)[C@@H](NC(=O)[C@H](Cc1ccccc1)NC(=O)[C@H](CC(=O)O)NC(=O)[C@H](CCC(N)=O)NC(=O)[C@H](C)NC(=O)[C@H](CCCNC(=N)N)NC(=O)[C@H](CCCNC(=N)N)NC(=O)[C@H](CO)NC(=O)[C@H](CCC(=O)O)NC(=O)[C@H](CC(C)C)NC(=O)[C@H](Cc1ccc(O)cc1)NC(=O)[C@H](CCCCN)NC(=O)[C@H](CO)NC(=O)[C@@H](NC(=O)[C@H](CC(=O)O)NC(=O)[C@H](CO)NC(=O)[C@@H](NC(=O)[C@H](Cc1ccccc1)NC(=O)[C@@H](NC(=O)CNC(=O)[C@H](CCC(N)=O)NC(=O)[C@H](CO)NC(=O)[C@@H](N)Cc1c[nH]cn1)[C@@H](C)O)[C@@H](C)O)C(C)C)C(C)C)C(=O)N[C@@H](Cc1c[nH]c2ccccc12)C(=O)N[C@@H](CC(C)C)C(=O)N[C@@H](CC(C)C)C(=O)N[C@@H](CO)C(=O)N[C@H](C(=O)O)[C@@H](C)O)C(=O)O)C(=O)O)C(=O)O)C(=O)O [Example 44, N^ε24-[(4S)-4-[[(4S)-4-[[(4S)-4-[[(4S)-4-acetamido-4-carboxybutanoyl]amino]-4-carboxybutanoyl]amino]-4-carboxybutanoyl]amino]-4-carboxybutanoyl]-[Val^10,Glu^15,Lys^24,Leu^27,Ser^28]-Glucagon] (H-HSQGTFTSDVSKYLESRRAQDFVK([γGlu-γGlu-γGlu-γGlu-Ac])WLLST-OH) — 33-fold higher, 0.075 nM
- CC(C)C[C@H](NC(=O)[C@H](Cc1c[nH]c2ccccc12)NC(=O)[C@H](CCCCNC(=O)CC[C@H](NC(=O)CC[C@H](NC(=O)CC[C@H](NC(=O)CC[C@H](N)C(=O)O)C(=O)O)C(=O)O)C(=O)O)NC(=O)[C@@H](NC(=O)[C@H](Cc1ccccc1)NC(=O)[C@H](CC(=O)O)NC(=O)[C@H](C)NC(=O)[C@H](C)NC(=O)[C@H](CCCNC(=N)N)NC(=O)[C@H](CCCNC(=N)N)NC(=O)[C@@H](NC(=O)[C@H](CC(=O)O)NC(=O)[C@H](CC(C)C)NC(=O)[C@H](Cc1ccc(O)cc1)NC(=O)[C@H](CCCCN)NC(=O)[C@H](CO)NC(=O)[C@H](Cc1ccc(O)cc1)NC(=O)[C@H](CC(=O)O)NC(=O)[C@H](CO)NC(=O)[C@@H](NC(=O)[C@H](Cc1ccccc1)NC(=O)[C@@H](NC(=O)CNC(=O)[C@H](Cc1c[nH]cn1)NC(=O)[C@H](CO)NC(=O)[C@@H](N)Cc1c[nH]cn1)[C@@H](C)O)[C@@H](C)O)[C@@H](C)O)C(C)C)C(=O)N[C@@H](CC(C)C)C(=O)N[C@@H](CO)C(=O)N[C@H](C(=O)O)[C@@H](C)O [Example 7, N^ε24-[(4S)-4-[[(4S)-4-[[(4S)-4-[[(4S)-4-amino-4-carboxybutanoyl]amino]-4-carboxybutanoyl]amino]-4-carboxybutanoyl]amino]-4-carboxybutanoyl]-[His3,Thr16,Ala20,Lys24,Leu27,Ser28]-Glucagon] (H-HSHGTFTSDYSKYLDTRRAADFVK([γGlu-γGlu-γGlu-γGlu])WLLST-OH) — 11-fold higher, 0.0243 nM
